The source of these data is patent US6875775B2, “Triphenylalkene derivatives and their use as selective estrogen receptor modulators” (Hormos Medical Oy LTD, priority 1999, dated 2005).

For one experiment, the system named is MCF-7 cells. Put plainly: cells. Type of experiment: cell-based. The conditions noted are these: for Killing of MCF-7 cells at the highest investigated concentration (in words): 10 μM, compounds with weak hormonal activity; for cytotoxicity at 10 µM / inhibition at 1 µM / Emax: Homo sapiens, MCF7, 96 h; for cytotoxicity at 10 µM: 10 μmol/l, read-out: Maximal Cell Kill (% fraction of dead cells); for inhibition at 1 µM: read-out: Antagonism at 1 μM (% of full antagonism); for Emax: maximal growth stimulus at any concentration, 4 days, read-out: Maximal Agonism (% of E2). How it is done:
Evaluation of Estrogenic and Antiestrogenic Properties of Compounds in MCF-7 Cell Growth Experiments in Vitro
For experiments involving hormone or anti-hormone treatment, the cells in exponential growth phase were precultivated in the absence of estradiol for one day. […] After the incubation period the medium was removed. The exposure to study drugs was started immediately by adding fresh medium with 5% stripped serum. Half of the cells were grown with estradiol, half without estradiol. Study compounds (dissolved in ethanol in 0.01 M concentration and diluted with the growth medium as appropriate) were added. The final concentrations of the compounds were 1, 10, and 100 nM, and 1 and 10 μM. The cells were incubated for four days.
This method allows evaluation of estrogenicity based on the ability of the compounds to stimulate the growth of the estrogen-dependent cells in the absence of estradiol.
Estrogenicity was estimated by comparing the maximal growth stimulus (at any concentration) of study compound as percent from growth stimulus by estradiol (100% stimulus). […] At high concentrations molecules may also show toxicity. Toxicity was estimated as the fraction of dead cells (i.e. 100% means that all cells have died during the exposure).

The subject of another experiment is immature rat uterus. The experiment is described as follows: 3 day uterotropic assay in immature female rats. The conditions noted are these: Table 3. How it is done: Estimation of Estrogenicity and Antiestrogenicity in Vivo
The results have been shown in Table 3 both as per cent of estrogen stimulation (100%), and as inhibition of estrogen action (full inhibition is 100%). The values are given at two dose levels, low i.e. 3-5 mg/kg and high i.e. 10-50 mg/kg. Estrogenic activity can be estimated also after a 4 weeks' treatment of ovariectomized rats based on the uterine size.

The test system of experiment [1] is ovariectomized rats. The experiment is described as follows: Size of the uterus after 4 weeks treatment of ovariectomized rats. Type of experiment: in vivo, rat.
Experiment [2] deals with ovariectomized (OVX) rats. The experiment is described as follows: Serum cholesterol level in ovariectomized (OVX) rats after 4 weeks dosing. Type of experiment: in vivo, rat. The conditions noted are these: for Cholesterol level (mmol/l) in serum: OVX rat, 4 weeks dosing; for Effect on cholesterol (in words): OVX rats, Table 4. An excerpt:
Estimation of Effects to Cholesterol and Bone
Compounds were given p.o. to female rats for 4 or 5 weeks daily. At the end a blood sample was taken. Serum was separated by centrifugation and frozen until analyzed for total amount of cholesterol. Bone samples were taken from vertebra and tibia. Physical strength of the bones was studied as described by Peng et al, 1994.

Experiment [3] has as its system ovariectomized rats. Put plainly: Ash weight of tibial epiphyses in ovariectomized rats after 4 weeks dosing. Type of experiment: in vivo, rat. The note with it: OVX rats. An excerpt:
(§1) Compounds were given p.o. to female rats for 4 or 5 weeks daily. At the end a blood sample was taken. Serum was separated by centrifugation and frozen until analyzed for total amount of cholesterol. Bone samples were taken from vertebra and tibia. Physical strength of the bones was studied as described by Peng et al, 1994. The assessments of the bone included:
Ash Weight of Tibial Epiphyses
Epiphyses of one tibia was carefully prepared and burned. Samples were burned to remove water and organic material. Ash weight relates to the mineral content of the bone. In addition, bone samples were taken to study the histomorphometry. In some cases the bone formation was studied by injecting tetracycline (50 mg/kg i.p. 10 days before autopsy) and calcein (20 mg/kg i.p. 3 days before autopsy). The method is based on permanent binding of tetracycline into growing bone and its detection by fluorescence (Peng et al, 1994).

Experiment [4] has as its system ovariectomized rats. Put plainly: Maximal load of femoral neck (cantilever bending test) in ovariectomized rats after 4 weeks dosing. The conditions noted are these: OVX rats. Type of experiment: in vivo, rat. Here is the method: as §1
Mechanical Testing of Bones
The mechanical testing of bones was carried out by materials testing machine, constructed in-house at Oulu University (Technical Services Dcpartment of the Medical Faculty). The testing machine is based on lever arm principle. One end of a steel lever is fixed. The pressing rod and the driving motor are connected to the lever arm with a moment ratio of 12.5 cm/50 cm=¼. As a driving motor a linear actuator (SEY 10 Magnetic Elektromotoren AG, Switzerland) is used to obtain constant vertical movement (0.62 cm/s). The interchangeable compression head is mounted on the pressing rod for different tests transmitting compressive force to the specimen, and moving at a constant speed of 0.155 mm/s up to a maximal load capacity of 1200 N. The pressing rod is guided via an axial ball bearing to keep the movement vertical. Compressive force is measured by a temperature-compensated force sensor, which is attached to the stationary part of the compression stage. The measuring electronics include sensor calibration and adjustments.
The maximal load on the femoral neck was measured by the cantilever bending test. The supporter for the bone was a thick polymethyl methacrylate plate in which several holes of different sizes were drilled. On one side of each hole a groove was engraved for the […] trochanter of the femur. The femur was cut exactly between the middle and lower third of the shaft. The bone was inserted perpendicularly and tightly into a suitable hole on the supporter. The lesser trochanter of each bone touched the surface of the plate. This procedure allowed rapid and stable fixation of the bone without using any additional embedding materials. […]

The test system of experiment [5] is DMBA-induced rat mammary gland cancer. Put plainly: Antitumor activity in DMBA-induced rat mammary gland cancer model. Type of experiment: in vivo. Here is the method: Estimation of Antitumor Activity in Vivo
Antitumor activity was estimated by using DMBA (dimethylbenz[a] anthracene) model. One single peroral dose of DMBA (12 mg) initiates mammary gland carcinogenesis. New compounds were administered for 5 weeks when palpable tumors appeared. Size of the tumors and number of new tumors were carefully estimated once a week until termination. The model has been described in detail by Kangas et al, 1986. The growth of the tumors was measured once a week. All tumors were classified according to their growth properties to progressing, stable and regressing ones. Disappeared tumors were separately calculated. The tumors were considered to be progressing, if the tumor volume grew more than 8-fold during the 5 weeks dosing period, and regressing if the tumor volume decreased to one fourth or less from the volume in the beginning. If tumor volume changed less or remained unchanged, the tumors were considered to be stable.

Experiment [6] concerns intact and castrated male rats. The experiment is described as follows: Weight of the prostate gland in intact and castrated male rats after 4 weeks daily treatment. The format is in vivo, rat. The conditions noted are these: for Weight of the prostate gland (g) mean and sd: 4 weeks daily.
Experiment [7] is described as follows: Overall hormonal profile summarised from Tables 2, 3 and 4.
The mark [8] stands for this setting: 15 mg/kg p.o. daily for 5 weeks.

Where two headings read alike, the source gives them in different places.

`CN(C)CCOc1ccc(/C(=C(/CCCl)c2ccccc2)c2ccc(F)cc2)cc1` [No. 1, (E)-(2-{4-[4-Chloro-1-(4-fluorophenyl)-2-phenylbut-1-enyl]phenoxy}ethyl)-dimethylamine]: the “Killing of MCF-7 cells at the highest investigated concentration (in words)” value in the experiment with MCF-7 cells is “kill MCF-7 cells (human breast cancer cells) effectively”. Also, the “Estrogenic action in vitro (in words)” value with MCF-7 cells (in vitro, Table 2) is “no estrogenic action in vitro”. The “Estrogenic action in vivo / in the uterus (in words)” value in the experiment on immature rat uterus is on record as “weak estrogen in vivo”.
As to `OCCOCCOc1ccc(/C(=C(/CCCl)c2ccccc2)c2ccccc2)cc1` [No. 19, (Z)-2-{2-[4-(4-Chloro-1,2-diphenylbut-1-enyl)phenoxy]ethoxy}ethanol], in the experiment on MCF-7 cells, the “Killing of MCF-7 cells at the highest investigated concentration (in words)” value is “kill MCF-7 cells (human breast cancer cells) effectively”. Further, the figures for the cytotoxicity at 10 µM with MCF-7 cells (With estradiol (E2)) and with MCF-7 cells (Without estradiol (E2)) were 50% and 14%, respectively. Also, the inhibition at 1 µM with MCF-7 cells (With estradiol (E2)) worked out at 21%. Besides, in the experiment on MCF-7 cells (Without estradiol (E2)), the Emax came out at 14%. Besides, the “Uterine size” value in the experiment with ovariectomized rats [1] (1.0 mg/kg peroral daily) came out at 0.192 ± 0.029 g; in the experiment on ovariectomized rats [1] (5.0 mg/kg peroral daily) it was 0.221 ± 0.023 g. The “Cholesterol level (mmol/l) in serum” value in experiment [2] (0.3 mg/kg) amounted to 3.6 ± 0.4 mmol/L; in experiment [2] (10 mg/kg) it was 3.9 ± 0.6 mmol/L. The “Effect on cholesterol (in words)” value in [2] was “decrease cholesterol”. Further, the “Ash weight (mg) of tibial epiphyses” value worked out at 34.8 ± 1.3 mg in the experiment with ovariectomized rats [3] (1.0 mg/kg p.o.) and 34.9 ± 1.9 mg with ovariectomized rats [3] (5.0 mg/kg p.o.). The “Maximal load (N) of femoral neck” value in the experiment on ovariectomized rats [4] (1.0 mg/kg p.o.) was 81.6 ± 7.9 N; in the experiment on ovariectomized rats [4] (5.0 mg/kg p.o.) it was 85.7 ± 17.0 N. The entries for the “Disappeared tumors (per cent of total tumor number)” value in [5] (3 mg/kg p.o. daily for 5 weeks) and in experiment [5] (setting [8]) were 20% and 14%, respectively. Further, the “Growing tumors (per cent of total tumor number)” value in experiment [5] (3 mg/kg p.o. daily for 5 weeks) was 20%; in [5] (setting [8]), 14%. The “Regressing tumors (per cent of total tumor number)” value in experiment [5] (3 mg/kg p.o. daily for 5 weeks) came to 40%; in [5] (setting [8]), 57%. Also, the “Stable tumors (per cent of total tumor number)” value in [5] (3 mg/kg p.o. daily for 5 weeks) came to 20%; in experiment [5] (setting [8]), 14%. Moreover, the “Anticancer efficacy in vivo compared with tamoxifen and toremifene (in words)” value in experiment [5] (DMBA-induced rat mammary tumor model, even at very low doses) is on record as “more effective anticancer drug in vivo”. The Weight of the prostate gland (g) mean and sd in experiment [6] (0.5 mg/kg to castrated rats) worked out at 0.59 ± 0.07 g; in experiment [6] (0.5 mg/kg, intact male rats), 2.66 ± 0.21 g; in experiment [6] (5.0 mg/kg to castrated rats), 0.62 ± 0.07 g; in experiment [6] (5.0 mg/kg, intact male rats) it was 1.58 ± 0.5 g. In addition, the “Estrogenic action on the weight of the prostate gland (in words)” value in experiment [6] (at doses which are active in DMBA-induced mammary tumor model) is recorded as “does not show any estrogenic action”. Besides, in [7], the “Estrogenic and antiestrogenic action (in words)” value was “weak estrogenic and no antiestrogenic action”.
Turning to `OCC(O)COc1ccc(/C(=C(/CCCl)c2ccccc2)c2ccccc2)cc1` (stereo not shown) [No. 20, (Z)-3-[4-(4-Chloro-1,2-diphenyl-but-1-enyl)phenoxy]propane-1,2-diol], in the experiment on MCF-7 cells (With estradiol (E2)), the cytotoxicity at 10 µM was 60% and the inhibition at 1 µM is 25%. Further, in the experiment with MCF-7 cells (Without estradiol (E2)), the cytotoxicity at 10 µM was 5% and the Emax worked out at 8%. Also, the “Uterine size” value with ovariectomized rats [1] (1.0 mg/kg peroral daily) is recorded as 0.133 ± 0.032 g. Also, in [2] (1 mg/kg), the “Cholesterol level (mmol/l) in serum” value amounted to 3.3 ± 0.6 mmol/L. For the same compound, in experiment [2] (5 mg/kg), the “Cholesterol level (mmol/l) in serum” value was found to be 2.3 ± 0.4 mmol/L. In experiment [2], the “Effect on cholesterol (in words)” value is on record as “decrease cholesterol”. Moreover, in the experiment on ovariectomized rats [3] (3.0 mg/kg p.o.), the “Ash weight (mg) of tibial epiphyses” value came out at 35.0 ± 3.2 mg. Also, in the experiment on ovariectomized rats [4] (3.0 mg/kg p.o.), the “Maximal load (N) of femoral neck” value is listed as 81.7 ± 15.2 N. Further, the “Estrogenic and antiestrogenic action (in words)” value in [7] was “weak estrogenic and no antiestrogenic action”.
